Data from patent publication US20110039762A1, “TARGETED ANTIMICROBIAL MOIETIES” (C3 JIAN, INC., priority 2009, published 2011).

Columns and labels:
MRSA [1] = test: MIC (broth microdilution); type: cell-based, Methicillin-resistant Staphylococcus aureus
Summary of the method: (§1)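 2-fold dilution series of peptides in 96-well plates, inoculated at about 1×10^5 cfu/mL in MH broth, following NCCLS standards. Plates held 18–24 h at 37 °C; each run repeated 10 times.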

T. rubrum = test: MIC (broth microdilution); type: cell-based, Trichophyton rubrum
Summary of the method: (§2)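 Peptides are serially diluted 2-fold and added to Mueller-Hinton broth cultures at ˜1×10^5 cfu/mL, then incubated at 37° C. for 18-24 h.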

A. niger = test: MIC (broth microdilution); type: cell-based, Aspergillus niger
Summary of the method: as §2

B. subtilis [2] = test: MIC (broth microdilution); type: cell-based, Bacillus subtilis
Summary of the method: as §1

S. epidermidis [3] = type: cell-based, Staphylococcus epidermidis; settings: S. epidermidis
Summary of the method: as §1

C. albicans [4] = test: MIC (broth microdilution); type: cell-based, Candida albicans
Procedure: (§3) Typically, the in vitro antimicrobial activity of antimicrobial agents is tested using standard NCCLS bacterial inhibition assays, or MIC tests (see, National Committee on Clinical Laboratory Standards “Performance Standards for Antimicrobial Susceptibility Testing,” NCCLS Document M100-S5 Vol. 14, No. 16, December 1994; “Methods for dilution antimicrobial susceptibility test for bacteria that grow aerobically-Third Edition,” Approved Standard M7-A3, National Committee for Clinical Standards, Villanova, Pa.).
(§4) Briefly, ˜1×10^5 cfu/mL bacteria were diluted in TH (S. mutans), or Mueller-Hinton (MH) broth (all other organisms) and distributed to 96-well plates. Serially-diluted (2-fold) peptides were then added and the plates incubated at 37° C. for 18-24 h. […] All experiments were conducted 10 times.

E. faecalis [5] = test: MIC (broth microdilution); type: cell-based, Enterococcus faecalis
Procedure: as §3, §4

B. subtilis [6] = test: Kill or inhibit growth/proliferation; morphology, biofilm and growth disruption (Tables 5, 6); type: cell-based, Bacillus subtilis; set-up: key: A: Peptide aggregates; B: Less hyphal formation; Clumps; Diffuse clumps and small polyps; F: Diffuse growth; H: Thin; I: Growth inhibition; Microcolony formation; Rippled; Small polyps; Thick; W: Halo formation on top, microlonies on bottom; also: test concentration or dose not given here
C. jeikeium = test: as above; type: cell-based, Corynebacterium jeikeium; set-up: key: A: Peptide aggregates; B: Less hyphal formation; Clumps; Diffuse clumps and small polyps; F: Diffuse growth; H: Thin; I: Growth inhibition; Microcolony formation; Rippled; Small polyps; Thick; W: Halo formation on top, microlonies on bottom; also: test concentration or dose not given here
E. faecalis [7] = test: as above; type: cell-based, Enterococcus faecalis; set-up: key: A: Peptide aggregates; B: Less hyphal formation; Clumps; Diffuse clumps and small polyps; F: Diffuse growth; H: Thin; I: Growth inhibition; Microcolony formation; Rippled; Small polyps; Thick; W: Halo formation on top, microlonies on bottom
MRSA [8] = test: as above; type: cell-based, Methicillin-resistant Staphylococcus aureus; set-up: key: A: Peptide aggregates; B: Less hyphal formation; Clumps; Diffuse clumps and small polyps; F: Diffuse growth; H: Thin; I: Growth inhibition; Microcolony formation; Rippled; Small polyps; Thick; W: Halo formation on top, microlonies on bottom
S. epidermidis [9] = test: as above; type: cell-based, Staphylococcus epidermidis; set-up: key: A: Peptide aggregates; B: Less hyphal formation; Clumps; Diffuse clumps and small polyps; F: Diffuse growth; H: Thin; I: Growth inhibition; Microcolony formation; Rippled; Small polyps; Thick; W: Halo formation on top, microlonies on bottom
S. pneumoniae = test: as above; type: cell-based, Streptococcus pneumoniae; set-up: key: A: Peptide aggregates; B: Less hyphal formation; Clumps; Diffuse clumps and small polyps; F: Diffuse growth; H: Thin; I: Growth inhibition; Microcolony formation; Rippled; Small polyps; Thick; W: Halo formation on top, microlonies on bottom; also: test concentration or dose not given here
C. albicans [10] = test: as above; type: cell-based, Candida albicans; set-up: key: A: Peptide aggregates; B: Less hyphal formation; Clumps; Diffuse clumps and small polyps; F: Diffuse growth; H: Thin; I: Growth inhibition; Microcolony formation; Rippled; Small polyps; Thick; W: Halo formation on top, microlonies on bottom
microorganisms = test: Peptides having multiple activities (targeting/binding, antimicrobial, growth or phenotype altering)
Excerpt: In certain embodiments, peptides described herein can have multiple activities. Thus for example, a peptide can have both binding/targeting activity and antimicrobial activity. Such peptides can be used, e.g., in a chimeric construct, for any or all of these properties. Thus, for example, a peptide designated “B” in Table 8 can be used as a targeting peptide. If it is also designated G or M it can also be used for antimicrobial activity.
For Organism, effect (morphology, biofilm and growth disruption) in this document: test concentration or dose not given here.

Sequence: MRFGSLALVAYDSAIKHSWPRPSSVRRLRM [PF-672]
- MIC (MRSA [1]): MRSA , 1.56 μM
- MIC (T. rubrum): T. rubrum, 0.78 μM
- MIC (A. niger): A. niger, 3 μM
- MIC (B. subtilis [2]): B. subtilis, 0.78 μM
- MIC (S. epidermidis [3]): S. epidermidis, 0.39 μM
- MIC (C. albicans [4]): C. albicans, 1.56 μM
- MIC (E. faecalis [5]): E. faecalis, 3.13 μM
- Organism, effect (morphology, biofilm and growth disruption) (B. subtilis [6]): B. subtilis (I)
- Organism, effect (morphology, biofilm and growth disruption) (C. jeikeium): C. jeikeium (R)
- Organism, effect (morphology, biofilm and growth disruption) (E. faecalis [7]): E. faecalis (I)
- Organism, effect (morphology, biofilm and growth disruption) (MRSA [8]): MRSA (I)
- Organism, effect (morphology, biofilm and growth disruption) (S. epidermidis [9]): S. epidermidis (I)
- Organism, effect (morphology, biofilm and growth disruption) (S. pneumoniae): S. pneumoniae (I)
- Organism, effect (morphology, biofilm and growth disruption) (C. albicans [10]): C. albicans (I)
- Activities (microorganisms): G B M
